Data as given in patent publication US8288385B2, “6-(3-aza-bicyclo[3.1.0]hex-3-yl)-2-phenyl-pyrimidines” (Actelion Pharmaceuticals Ltd., priority 2009, dated 2012).

Biological target: T1, human P2Y12 receptor (Homo sapiens, UniProt Q9H244)
T1 construct: expressed in transfected cells; host or cells: Chinese Hamster Ovary (CHO) cells
Assay: P2Y12 receptor binding assay
Conditions: CHO cells with recombinant expression of the human P2Y12 receptor; tritium-labeled 2-methyl-S-ADP; RT, 2 hours
Protocol: P2Y12 Receptor Binding Assay
Chinese Hamster Ovary (CHO) cells with recombinant expression of the human P2Y12 receptor were cultured in 24 well cell-culture plates. Cells were washed three times with binding buffer (50 mM Tris pH 7.4, 100 mM NaCl, 1 mM EDTA, 0.5% BSA). The cells were then incubated with 0.5 ml per well binding buffer containing tritium-labeled 2-methyl-thio-adenosine 5′-diphosphate (2-methyl-S-ADP) (between 100,000 and 300,000 dpm per well) and various concentrations of test compounds. After incubation at RT for 2 hours, cells were washed three times with binding buffer. Then, cells were solubilized by addition of 0.5 ml solubilization buffer (SDS, NaOH, EDTA). The content of each well was then transferred into beta-counter vials and 2.0 ml of Ultima Gold Scintillation liquid was added.

T1 sequence (Q9H244 whole entry): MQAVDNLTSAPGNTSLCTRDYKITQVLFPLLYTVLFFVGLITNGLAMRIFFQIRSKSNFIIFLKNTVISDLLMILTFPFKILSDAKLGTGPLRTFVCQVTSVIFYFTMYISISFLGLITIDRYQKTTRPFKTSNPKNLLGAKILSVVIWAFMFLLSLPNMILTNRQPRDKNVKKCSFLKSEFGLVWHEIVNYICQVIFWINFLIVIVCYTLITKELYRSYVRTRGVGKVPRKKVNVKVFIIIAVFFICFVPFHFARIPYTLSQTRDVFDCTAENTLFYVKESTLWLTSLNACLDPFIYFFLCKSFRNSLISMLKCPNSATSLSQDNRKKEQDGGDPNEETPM

Row | SMILES | IC50 [µM]
1 | CCCCOC(=O)N1CCN(C(=O)[C@@H](NC(=O)c2cc(N3C[C@@H]4[C@H](C3)[C@@H]4C(=O)O)nc(-c3ccc(F)cc3)n2)C(C)C)CC1 [Example 28, (1α,5α,6β)-3-[6-[(S)-1-(4-Butoxycarbonyl-piperazine-1-carbonyl)-2-methyl-propylcarbamoyl]-2-(4-fluoro-phenyl)-pyrimidin-4-yl]-3-aza-bicyclo[3.1.0]hexane-6-carboxylic acid] | 0.007
2 | CCCCOC(=O)N1CCN(C(=O)[C@@H](NC(=O)c2cc(N3C[C@@H]4[C@H](C3)[C@@H]4C(=O)O)nc(-c3ccc(C)cc3)n2)C(C)C)CC1 [Example 29, (1α,5α,6β)-3-{6-[(S)-1-(4-Butoxycarbonyl-piperazine-1-carbonyl)-2-methyl-propylcarbamoyl]-2-p-tolyl-pyrimidin-4-yl}-3-aza-bicyclo[3.1.0]hexane-6-carboxylic acid] | 0.018
3 | CCCCOC(=O)N1CCN(C(=O)[C@@H](NC(=O)c2cc(N3C[C@@H]4[C@H](C3)[C@@H]4C(=O)O)nc(-c3cccc(C(F)(F)F)c3)n2)C(C)C)CC1 [Example 30, (1α,5α,6β)-3-[6-[(S)-1-(4-Butoxycarbonyl-piperazine-1-carbonyl)-2-methyl-propylcarbamoyl]-2-(3-trifluoromethyl-phenyl)-pyrimidin-4-yl]-3-aza-bicyclo[3.1.0]hexane-6-carboxylic acid] | 0.25
4 | CCCCOC(=O)N1CCN(C(=O)C(NC(=O)c2cc(N3CC4C(C3)C4C(=O)O)nc(-c3ccccc3)n2)C(C)C)CC1C [Example 31, (1α,5α,6β)-3-{6-[(S)-1-((R)-4-Butoxycarbonyl-3-methyl-piperazine-1-carbonyl)-2-methyl-propylcarbamoyl]-2-phenyl-pyrimidin-4-yl}-3-aza-bicyclo[3.1.0]hexane-6-carboxylic acid] | 0.053
5 | CC(C)[C@H](NC(=O)c1cc(N2C[C@@H]3C(C(=O)O)[C@@H]3C2)nc(-c2ccccc2)n1)C(=O)N1CCN(C(=O)OCc2ccccc2)[C@H](C)C1 (stereo partly drawn) [Example 32, (1α,5α,6β)-3-{6-[(S)-1-((R)-4-Benzyloxycarbonyl-3-methyl-piperazine-1-carbonyl)-2-methyl-propylcarbamoyl]-2-phenyl-pyrimidin-4-yl}-3-aza-bicyclo[3.1.0]hexane-6-carboxylic acid] | 0.477
6 | CCCCOC(=O)N1CCN(C(=O)CNC(=O)c2cc(N3C[C@@H]4[C@H](C3)[C@@H]4C(=O)O)nc(-c3ccccc3)n2)CC1 [Example 33, (1α,5α,6β)-3-{6-[2-(4-Butoxycarbonyl-piperazin-1-yl)-2-oxo-ethylcarbamoyl]-2-phenyl-pyrimidin-4-yl}-3-aza-bicyclo[3.1.0]hexane-6-carboxylic acid] | 0.068
7 | CCCCOC(=O)N1CCN(C(=O)[C@H](C)NC(=O)c2cc(N3C[C@@H]4[C@H](C3)[C@H]4C(=O)O)nc(-c3ccccc3)n2)CC1 [Example 34, (1α,5α,6α)-3-{6-[(S)-2-(4-Butoxycarbonyl-piperazin-1-yl)-1-methyl-2-oxo-ethylcarbamoyl]-2-phenyl-pyrimidin-4-yl}-3-aza-bicyclo[3.1.0]hexane-6-carboxylic acid] | 0.229
8 | CCCCOC(=O)N1CCN(C(=O)[C@H](C)NC(=O)c2cc(N3C[C@@H]4[C@H](C3)[C@@H]4C(=O)O)nc(-c3ccccc3)n2)CC1 [Example 35, (1α,5α,6β)-3-{6-[(S)-2-(4-Butoxycarbonyl-piperazin-1-yl)-1-methyl-2-oxo-ethylcarbamoyl]-2-phenyl-pyrimidin-4-yl}-3-aza-bicyclo[3.1.0]hexane-6-carboxylic acid] | 0.051
9 | CCCCOC(=O)N1CCN(C(=O)[C@H](CC)NC(=O)c2cc(N3C[C@@H]4[C@H](C3)[C@@H]4C(=O)O)nc(-c3ccccc3)n2)CC1 [Example 36, (1α,5α,6β)-3-{6-[(S)-1-(4-Butoxycarbonyl-piperazine-1-carbonyl)-propylcarbamoyl]-2-phenyl-pyrimidin-4-yl}-3-aza-bicyclo[3.1.0]hexane-6-carboxylic acid] | 0.096
10 | CCCCOC(=O)N1CCN(C(=O)[C@H](CCC)NC(=O)c2cc(N3C[C@@H]4[C@H](C3)[C@@H]4C(=O)O)nc(-c3ccccc3)n2)CC1 [Example 37, (1α,5α,6β)-3-{6-[(S)-1-(4-Butoxycarbonyl-piperazine-1-carbonyl)-butylcarbamoyl]-2-phenyl-pyrimidin-4-yl}-3-aza-bicyclo[3.1.0]hexane-6-carboxylic acid] | 0.123
11 | CCCCOC(=O)N1CCN(C(=O)[C@H](CCCC)NC(=O)c2cc(N3C[C@@H]4[C@H](C3)[C@@H]4C(=O)O)nc(-c3ccccc3)n2)CC1 [Example 38, (1α,5α,6β)-3-{6-[(S)-1-(4-Butoxycarbonyl-piperazine-1-carbonyl)-pentylcarbamoyl]-2-phenyl-pyrimidin-4-yl}-3-aza-bicyclo[3.1.0]hexane-6-carboxylic acid] | 0.136
12 | CCCCOC(=O)N1CCN(C(=O)[C@H](CC(C)C)NC(=O)c2cc(N3C[C@@H]4[C@H](C3)[C@@H]4C(=O)O)nc(-c3ccccc3)n2)CC1 [Example 39, (1α,5α,6β)-3-{6-[(S)-1-(4-Butoxycarbonyl-piperazine-1-carbonyl)-3-methyl-butylcarbamoyl]-2-phenyl-pyrimidin-4-yl}-3-aza-bicyclo[3.1.0]hexane-6-carboxylic acid] | 0.124
13 | CCCCOC(=O)N1CCN(C(=O)[C@H](CC2CC2)NC(=O)c2cc(N3C[C@@H]4[C@H](C3)[C@@H]4C(=O)O)nc(-c3ccccc3)n2)CC1 [Example 40, (1α,5α,6β)-3-{6-[(S)-2-(4-Butoxycarbonyl-piperazin-1-yl)-1-cyclopropylmethyl-2-oxo-ethylcarbamoyl]-2-phenyl-pyrimidin-4-yl}-3-aza-bicyclo[3.1.0]hexane-6-carboxylic acid] | 0.143
14 | CCCCOC(=O)N1CCN(C(=O)[C@@H](NC(=O)c2cc(N3C[C@@H]4[C@H](C3)[C@@H]4C(=O)O)nc(-c3ccccc3)n2)C2CC2)CC1 [Example 41, (1α,5α,6β)-3-{6-[(S)-2-(4-Butoxycarbonyl-piperazin-1-yl)-1-cyclopropyl-2-oxo-ethylcarbamoyl]-2-phenyl-pyrimidin-4-yl}-3-aza-bicyclo[3.1.0]hexane-6-carboxylic acid] | 0.022
15 | CCCCOC(=O)N1CCN(C(=O)C(NC(=O)c2cc(N3CC4C(C3)C4C(=O)O)nc(-c3ccccc3)n2)C(C)O)CC1 [Example 42, (1α,5α,6β)-3-{6-[(1S,2R)-1-(4-Butoxycarbonyl-piperazine-1-carbonyl)-2-hydroxy-propylcarbamoyl]-2-phenyl-pyrimidin-4-yl}-3-aza-bicyclo[3.1.0]hexane-6-carboxylic acid] | 0.05
16 | CCCCOC(=O)N1CCN(C(=O)[C@@H](NC(=O)c2cc(N3C[C@@H]4[C@H](C3)[C@@H]4C(=O)O)nc(-c3ccccc3)n2)C(C)(C)C)CC1 [Example 43, (1α,5α,6β)-3-{6-[(S)-1-(4-Butoxycarbonyl-piperazine-1-carbonyl)-2,2-dimethyl-propylcarbamoyl]-2-phenyl-pyrimidin-4-yl}-3-aza-bicyclo[3.1.0]hexane-6-carboxylic acid] | 0.33
17 | CCCCOC(=O)N1CCN(C(=O)[C@@H](NC(=O)c2cc(N3C[C@@H]4[C@H](C3)[C@H]4C(=O)O)nc(-c3ccccc3)n2)C(C)(C)C)CC1 [Example 44, (1α,5α,6α)-3-{6-[(S)-1-(4-Butoxycarbonyl-piperazine-1-carbonyl)-2,2-dimethyl-propylcarbamoyl]-2-phenyl-pyrimidin-4-yl}-3-aza-bicyclo[3.1.0]hexane-6-carboxylic acid] | 0.903
